Results: patent US12043625B2, “Pyridine derivatives with c-linked cyclic substituents as cGAS inhibitors” (BOEHRINGER INGELHEIM INTERNATIONAL GMBH, priority 2021, dated 2024)

Key:
[1] = tested on: IFN induction in virus-stimulated THP1 cells; experiment: Human cGAS cell assay, baculovirus-stimulated THP1-Dual cells, Lucia luciferase reporter (THP1(vir) IC50); format: cell-based; conditions: for IC50: Homo sapiens, THP-1; for Ratio THP(cGAMP) IC50/THP(vir) IC50: selectivity for cGAS inhibition;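 as to all read-outs here: IRF-dependent luminescence, 8 concentrations up to 10 µM in 1% DMSO, 0% = unstimulated cells, 100% = DMSO plus virus, counter assay stimulated with cGAMP downstream of cGAS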
Source text: THP1-Dual™ cells (InvivoGen #thpd-nfis) expressing IRF dependent Lucia luciferase reporter were used as basis for both assays. For the detection of cellular cGAS activity cells were stimulated by a baculovirus (pFastbac-1, Invitrogen, no coding insert) infection that delivers the cGAS enzyme stimulating double-stranded DNA (measurement of THP1(vir) IC50).
(§1) For the counter assay, cells were stimulated by cGAMP (SigmaAldrich #SML1232) to activate the identical pathway independent and directly downstream of cGAS (measurement of THP1(cAMP) IC50). Pathway activity was monitored by measuring the Lucia luciferase activity induced by either DNA stimulated cGAS enzyme activity (measurement of THP1^(vir) IC50) or by cGAMP directly (measurement of THP1(cAMP) IC50, counter assay).
Typically, 8 concentrations were used with the highest concentration at 10 μM in the final assay volume followed by ˜1:5 dilution steps. DMSO concentration was set to 1% in the final assay volume. The 384 well assay plate contained 21 test compounds (column 1-22), and DMSO in column 23 and 24.
The baculovirus solution was then added 1:200 (may have varied according to virus batch) to the cells (measurement of THP1(vir) IC50).
(§2) 30 μL of the cell/virus-mix were added to each well of the compound plate from column 1-23 via MultiDrop Combi dispenser (5000 cells/well). In column 24, 30 μl/5000 cells/well without virus were added as a low control.
(§3) The plates were then incubated for 18 h at 37° C. in a humidified incubator.
(§4) Following that, 15 μL of QuantiLuc detection reagent (InvivoGen #rep-qlcg5) were added to each well using a MultiDrop Combi. Measurement was done immediately after the addition using an EnVision reader (US-luminescence read-mode).
Data Evaluation and Calculation:
(§5) For data evaluation and calculation, the measurement of the low control was set as 0% control and the measurement of the high control was set as 100% control. The IC50 values were calculated using the standard 4 parameter logistic regression formula. Calculation: [y=(a−d)/(1+(x/c)^b)+d], a=low value, d=high value; x=conc M; c=1C50 M; b=slope

[2] = tested on: IFN induction in cGAMP-stimulated THP1 cells; experiment: cGAMP stimulated counter cell assay, THP1-Dual cells, Lucia luciferase reporter (THP1(cGAMP) IC50); format: cell-based; conditions: Homo sapiens, THP-1, THP1-Dual cells stimulated with 10 μM cGAMP;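 also: IRF-driven Lucia luciferase luminescence after 18 h at 37° C, compound series topping at 10 µM with 1% DMSO, unstimulated wells as 0% and DMSO wells as 100%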
Source text: 6.2 Method: Human cGAS Cell Assay and cGAMP Stimulated Counter Cell Assay (THP1(vir) IC50 and THP1(cGAMP) IC50)
THP1-Dual™ cells (InvivoGen #thpd-nfis) expressing IRF dependent Lucia luciferase reporter were used as basis for both assays.
as §1
Compounds were delivered in 10 mM DMSO solution, serially diluted and transferred to the 384 well assay plate (Greiner #781201) using an Echo acoustic dispenser. Typically, 8 concentrations were used with the highest concentration at 10 μM in the final assay volume followed by ˜1:5 dilution steps. DMSO concentration was set to 1% in the final assay volume. The 384 well assay plate contained 21 test compounds (column 1-22), and DMSO in column 23 and 24.
as §2, §3, §4
Data Evaluation and Calculation:
as §5

[3] = tested on: IFN induction in dsDNA-stimulated human whole blood; experiment: Human whole blood assay, dsDNA transfection, IFNα2a production (hWB IC50); format: cell-based;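 also: cGAS pathway activity, IFNα2a in plasma by MSD immunoassay after 22 h at 37 °C, 8 concentrations up to 10 µM in 0.1% DMSO, DMSO controls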
Procedure: For the detection of cellular cGAS activity human whole blood was stimulated by transfection with double stranded DNA. Pathway activity was monitored by measuring the IFNα2α production.
Typically, 8 concentrations were used with the highest concentration at 10 μM in the final assay volume followed by ˜1:5 dilution steps. DMSO concentration was set to 0.1% in the final assay volume. The 96-well assay plate contained 10 test compounds, and DMSO in control wells.
Whole blood was kept at room temperature for a maximum of 3 hours after collection until use in the assay.
160 μl of the whole blood samples was transferred to each well of the 96-well assay plates filled with compound/OptiMEM. All assay plates were prepared as duplicates with blood from different donors. Blood plates were kept at room temperature for 60 minutes and continuous shaking with 450 rpm, covered with the lid, but not sealed.
20 μl OptiMEM and 9.6:1 Fugene was added to all low control wells.
After covering assay plates with aera seals and the lid, blood plates were kept at room temperature for 30 minutes and continuous shaking with 450 rpm, followed by an overnight incubation of 22 h at 37° C. in the incubator, without shaking.
U-Plex MSD GOLD 96-well Small Spot Strepavidin SECTOR Plates (Meso Scale Diagnostics #L45SA-5) were coated with 25 μl diluted capture antibody. Coated plates were incubated for 60 min at room temperature under continuous shaking at 700 rpm. MSD IFNα-2a plates were washed three times with 150 μl wash buffer (1×HBSS, 0.05% Tween).
After blocking the plates with 100 μl block solution/well (1×HBSS with 0.2% Tween, 2% BSA) for 60 min at room temperature and continuous shaking at 700 rpm, plates were emptied as dry as possible by dumping just before continuing with the human plasma.
Whole Blood assay plates were centrifuged at 1600 rpm for 10 minutes. 25 μl of supernatant was transferred with a pipetting robot from each whole blood plate to the corresponding IFNα-2a plate.
Plates were sealed with microplate seals and kept at room temperature again under continuous shaking at 700 rpm for two hours.
Next MSD IFNα-2a plates were washed three times with 150 μl wash buffer (1×HBSS, 0.05% Tween), before adding 25 μl MSD SULFO-TAG IFNα-2a Antibody solution (1:100 diluted in Diluent 3 (Meso Scale Diagnostics #R50AP-2) to each well of the plates.
Afterwards plates were sealed with microplate seals and kept at room temperature again under continuous shaking at 700 rpm for two hours. Finally, MSD IFNα-2α plates were washed three times with 150 μl wash buffer (1×HBSS, 0.05% Tween). 150 μl 2× Read buffer was added to each well and plates were immediately measured with the MSD Sector S600 Reader using the vendor barcode.
For data evaluation and calculation, % control calculation of each well was based on the mean of high (DNA stimulated control) and mean of low (unstimulated control) controls by using the following formula: [counts(sample)−counts(low))/(counts(high)−counts(low))]*100
The IC50 values were calculated using the standard 4 parameter logistic regression formula. Calculation: [y=(a−d)/(1+(x/c)^b)+d], a=low value, d=high value; x=conc M; c=1C50 M; b=slope

cGAS = conditions: as disclosed on page 45 of WO 2020/142729; read-out: biochemical (in vitro) IC50-value group; cited from earlier work
Human cGAS = Human cGAS (Homo sapiens (Human), UniProt Q8N884); experiment: Human cGAS enzyme assay (hcGAS IC50, in vitro), cGAMP formation by RapidFire MS; format: biochemical; conditions: 45 bp dsDNA, GTP/ATP;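 also: compounds preincubated 60 min, then GTP and ATP (30 µM each) added for 90 min at room temperature, cGAMP read relative to cyclic-di-GMP internal standard, no-enzyme/DNA wells as 0%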
[4] = baculovirus-stimulated THP1-Dual cells, 18 h

Chain of Human cGAS (Q8N884 whole entry): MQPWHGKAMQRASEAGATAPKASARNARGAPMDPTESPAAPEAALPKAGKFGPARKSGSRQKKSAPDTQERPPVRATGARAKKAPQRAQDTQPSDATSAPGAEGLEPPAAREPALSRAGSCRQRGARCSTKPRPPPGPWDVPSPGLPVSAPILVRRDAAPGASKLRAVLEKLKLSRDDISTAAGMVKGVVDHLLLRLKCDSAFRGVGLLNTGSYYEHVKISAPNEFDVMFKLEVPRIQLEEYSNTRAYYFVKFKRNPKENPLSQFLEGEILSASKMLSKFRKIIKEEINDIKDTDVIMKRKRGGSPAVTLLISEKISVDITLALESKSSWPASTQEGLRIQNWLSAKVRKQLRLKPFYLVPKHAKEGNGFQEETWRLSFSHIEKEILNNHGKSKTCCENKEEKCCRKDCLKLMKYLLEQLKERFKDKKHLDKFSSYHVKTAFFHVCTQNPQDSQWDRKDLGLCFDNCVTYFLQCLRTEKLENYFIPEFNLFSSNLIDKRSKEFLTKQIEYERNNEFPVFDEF

SMILES | IC50 [1] [nM] | IC50 [1, 4] [nM] | IC50 [2] [nM] | IC50 [3] [nM] | IC50 (cGAS) [nM] | IC50 (Human cGAS) [nM] | Ratio THP(cGAMP) IC50/THP(vir) IC50 [1]
Cc1nc(N2C[C@@H](Cc3nn[nH]n3)C[C@H]2C(=O)O)c2oc3ccccc3c2n1 [Example 25, reference compound] | 17000 | > 17000 | > 17000 | > 9990 | < 100 | – | –
C[C@H]1CS(=O)(=O)C(C)(C)C[C@@]1(F)c1cc(Cl)cnc1O[C@H]1C[C@@H](C(=O)O)N(c2nc(C(F)(F)F)nc3c2oc2ccccc23)C1 [Example 1.07] | – | 216 | 3680 | 213 | – | 69 | 17
C#Cc1cnc(O[C@H]2C[C@@H](C(=O)O)N(c3nc(C(F)F)nc4c3oc3ccccc34)C2)c([C@@]2(F)CCS(=O)(=O)C[C@@H]2C)c1 [Example 2.11] | – | 4 | > 16600 | 3 | – | 2 | >3829
C#Cc1cnc(O[C@H]2C[C@@H](C(=O)O)N(c3nc(C(F)(F)F)nc4c3oc3ccccc34)C2)c([C@@]2(F)CCN(C(C)=O)C[C@@H]2C)c1 [Example 2.19] | – | 23 | 9960 | 57 | – | 5 | 435
C#Cc1cnc(O[C@H]2C[C@@H](C(=O)O)N(c3nc(C(F)F)nc4c3oc3ccccc34)C2)c(C2(F)CCS(=O)(=O)CC2)c1 [Example 2.03] | – | 112 | > 16600 | 40 | – | 2 | >148
N#CN1CCC(F)(c2cc(Cl)cnc2O[C@H]2C[C@@H](C(=O)O)N(c3nc(C(F)F)nc4c3oc3ccccc34)C2)CC1 [Example 2.05] | – | 718 | 16700 | 945 | – | 6 | 23
C#Cc1cnc(O[C@H]2C[C@@H](C(=O)O)N(c3nc(C(F)(F)F)nc4c3oc3ccccc34)C2)c([C@@]2(F)CC(C)(C)S(=O)(=O)C[C@@H]2C)c1 [Example 1.08] | – | 4 | 13900 | 16 | – | 4 | 3275
C[C@H]1CS(=O)(=O)CC[C@]1(F)c1cc(Cl)cnc1O[C@H]1C[C@@H](C(=O)O)N(c2nc(C(F)(F)F)nc3c2oc2ccccc23)C1 [Example 2.10] | – | 4 | 18800 | 15 | – | 3 | 4605
O=C(O)[C@@H]1C[C@H](Oc2ncc(Cl)cc2[C@]2(F)CCS(=O)(=O)C3(CC3)C2)CN1c1nc(C(F)F)nc2c1oc1ccccc12 [Example 1.17] | – | 54 | 22100 | 45 | – | 3 | 412
C[C@H]1CS(=O)(=O)CC[C@@]1(F)c1cc(Cl)cnc1O[C@H]1C[C@@H](C(=O)O)N(c2nc(C(F)F)nc3c2oc2ccccc23)C1 [Example 1.11] | – | 731 | > 16600 | 194 | – | 2 | –
C[C@H]1CS(=O)(=O)CC[C@]1(F)c1cc(Cl)cnc1O[C@H]1C[C@@H](C(=O)O)N(c2nc(C(F)F)nc3c2oc2ccccc23)C1 [Example 1.13] | – | 6 | 22500 | 6 | – | 2 | –
O=C(O)[C@@H]1C[C@H](Oc2ncc(-n3cc(Cl)cn3)cc2C2(F)CCOCC2)CN1c1nc(C(F)F)nc2c1oc1ccccc12 [Example 5.01, (2S,4S)-4-{[5-(4-chloro-1H-pyrazol-1-yl)-3-(4-fluorooxan-4-yl)pyridin-2-yl]oxy}-1-[4-(difluoromethyl)-8-oxa-3,5-diazatricyclo[7.4.0.0^2,7]trideca-1(13),2,4,6,9,11-hexaen-6-yl]pyrrolidine-2-carboxylic acid] | – | 1000 | > 16600 | 2890 | – | 12 | >17
CO[C@]1(c2cc(Cl)cnc2O[C@H]2C[C@@H](C(=O)O)N(c3nc(C(F)F)nc4c3oc3ccccc34)C2)CC(C)(C)S(=O)(=O)C[C@@H]1C [Example 1.05] | – | 44 | 13200 | 135 | – | 2 | 298
COc1cc(-c2cnc(O[C@H]3C[C@@H](C(=O)O)N(c4nc(C(F)F)nc5c4oc4ccccc45)C3)c([C@@]3(F)CCN(C(C)=O)C[C@@H]3C)c2)c(F)cn1 [Example 3.03] | – | 18 | 10400 | 53 | – | 12 | 568
C#Cc1cnc(O[C@H]2C[C@@H](C(=O)O)N(c3nc(C(F)(F)F)nc4c3oc3ccccc34)C2)c([C@]2(F)CCS(=O)(=O)C[C@H]2C)c1 [Example 2.15] | – | 207 | 10300 | 291 | – | 6 | 50
O=C(O)[C@@H]1C[C@H](Oc2ncc(Cl)cc2C2(F)CCS(=O)(=O)CC2)CN1c1nc(C(F)(F)F)nc2c1oc1ccccc12 [Example 2.02] | – | 540 | > 16600 | 89 | – | 4 | >31
C[C@H]1COCC[C@]1(F)c1cc(-c2cnn(C(F)F)c2)cnc1O[C@H]1C[C@@H](C(=O)O)N(c2nc(C(F)F)nc3c2oc2ccccc23)C1 [Example 6.01, (2S,4S)-4-({5-[1-(Difluoromethyl)-1H-pyrazol-4-yl]-3-[(3S,4R)-4-fluoro-3-methyloxan-4-yl]pyridin-2-yl}oxy)-1-[4-(difluoromethyl)-8-oxa-3,5-diazatricyclo[7.4.0.0^2,7]trideca-1(9),2(7),3,5,10,12-hexaen-6-yl]pyrrolidine-2-carboxylic acid] | – | 35 | > 9990 | 82 | – | 5 | >289
CNc1cc(-c2cnc(O[C@H]3C[C@@H](C(=O)O)N(c4nc(C(F)F)nc5c4oc4ccccc45)C3)c([C@@]3(F)CCOC[C@@H]3C)c2)ccn1 [Example 3.02] | – | 23 | 4710 | 53 | – | 2 | 201
